Activity calls are given as the source filed them. The calls are words filed in the database; no cut-off is given here.
Assays:
[1] = target: Cathepsin B (Homo sapiens) (UniProt P07858); assay: Inhibition of cathepsin B in human hepatocytes using Z-RR-AMC as substrate by fluorescence assay; assay type: cell-based; conditions: Hepatocyte
[2] = Inhibition of caspase-like activity of 20S proteasome in rabbit erythrocytes using Z-LLE-betaNA as substrate preincubated for 15 mins measured after 45 mins by fluorescence assay; assay type: cell-based, Oryctolagus cuniculus
[3] = Inhibition of trypsin-like activity of 20S proteasome in rabbit erythrocytes using Boc-LRR-AMC as substrate preincubated for 15 mins measured after 45 mins by fluorescence assay; assay type: cell-based, Oryctolagus cuniculus
[4] = Inhibition of chymotrypsin-like activity of 20S proteasome in rabbit erythrocytes using Suc-LLVY-AMC as substrate preincubated for 15 mins measured after 45 mins by fluorescence assay; assay type: cell-based, Oryctolagus cuniculus
Oryctolagus cuniculus [5] = species: Oryctolagus cuniculus; assay: Inhibition of caspase-like activity of 20S proteasome in rabbit erythrocytes using Z-LLE-betaNA as substrate at 100 uM preincubated for 15 mins measured after 45 mins by fluorescence assay relative to control
[6] = target: T1, Calpain-1 catalytic subunit (Homo sapiens, UniProt P07384); assay: Inhibition of calpain 1 in human erythrocytes using Suc-LLVY-AMC as substrate by fluorescence assay; assay type: cell-based
T1 sequence (P07384 whole entry): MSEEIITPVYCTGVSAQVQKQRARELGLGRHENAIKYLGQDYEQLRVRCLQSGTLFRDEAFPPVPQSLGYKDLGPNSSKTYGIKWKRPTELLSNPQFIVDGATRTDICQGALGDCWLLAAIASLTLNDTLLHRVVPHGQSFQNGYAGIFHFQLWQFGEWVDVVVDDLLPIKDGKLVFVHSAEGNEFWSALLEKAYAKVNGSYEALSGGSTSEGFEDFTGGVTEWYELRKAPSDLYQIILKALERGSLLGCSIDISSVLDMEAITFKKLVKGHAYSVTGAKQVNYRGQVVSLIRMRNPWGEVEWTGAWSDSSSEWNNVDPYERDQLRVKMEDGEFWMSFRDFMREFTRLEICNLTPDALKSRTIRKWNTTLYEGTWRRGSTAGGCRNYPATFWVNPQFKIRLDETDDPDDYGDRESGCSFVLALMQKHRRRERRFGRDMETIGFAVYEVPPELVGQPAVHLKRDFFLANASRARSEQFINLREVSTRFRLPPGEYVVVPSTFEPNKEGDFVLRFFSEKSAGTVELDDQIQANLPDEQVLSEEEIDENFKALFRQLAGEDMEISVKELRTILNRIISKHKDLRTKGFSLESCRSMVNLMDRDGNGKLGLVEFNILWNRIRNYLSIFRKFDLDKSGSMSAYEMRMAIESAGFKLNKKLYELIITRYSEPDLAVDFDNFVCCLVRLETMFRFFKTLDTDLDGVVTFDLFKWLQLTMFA

Oryctolagus cuniculus [7] = species: Oryctolagus cuniculus; assay: Inhibition of chymotrypsin-like activity of 20S proteasome in rabbit erythrocytes using Suc-LLVY-AMC as substrate at 100 uM preincubated for 15 mins measured after 45 mins by fluorescence assay relative to control; assay type: cell-based

Row | inhibition [1] | IC50 ([2]; read-out: IC50) | IC50 [3] | IC50 [4] | inhibition (Oryctolagus cuniculus [5]) | IC50 [6] | IC50 [2] | Compound | IC50 ([4]; read-out: IC50) | inhibition (Oryctolagus cuniculus [7]) | IC50 ([3]; read-out: IC50)
1 | inactive | 54.7 µM | Not Active | Not Active |  |  |  | CC1(C)CC2(CCO1)OC(=O)c1c2ccn(CCCN2CCOCC2)c1=O (configuration not stated) |  |  | 
2 | inactive | 4.1 µM | Not Active | Not Active |  |  |  | CCN(CC)CC(O)Cn1ccc2c(c1=O)C(=O)OC21CCOC(C)(C)C1 (configuration not stated) |  |  | 
3 | inactive | 4.4 µM | Not Active | Not Active |  |  |  | CCN(CC)CC(O)Cn1ccc2c(c1=O)C(=O)OC2(C)c1ccccc1 (mixture of isomers) |  |  | 
4 | inactive | 46.9 µM | Not Active | Not Active |  |  |  | O=C1OC2(CCCCC2)c2ccn(CCCN3CCOCC3)c(=O)c21 |  |  | 
5 | inactive |  | Not Active | Not Active | 30.7% |  |  | O=C1OC2(CCCCC2)c2ccn(CC(O)CN3CCOCC3)c(=O)c21 (configuration not stated) |  |  | 
6 | inactive | 56.4 µM | Not Active | Not Active |  |  |  | CC1(c2ccccc2)OC(=O)c2c1ccn(CCCN1CCOCC1)c2=O (racemic) |  |  | 
7 | inactive | 6.7 µM | Not Active | Not Active |  |  |  | CCN(CC)CC(O)Cn1ccc2c(c1=O)C(=O)OC21CCCCC1 (configuration not stated) |  |  | 
8 | inactive | 7 µM | Not Active |  |  | 29.6 µM |  | CC1(Cc2ccccc2)OC(=O)c2c1ccn(CCc1ccc(Cl)cc1)c2=O (racemic) | 22.5 µM |  | 
9 | inactive | 11.9 µM | Not Active | Not Active |  |  |  | O=C1OC2(CCCCC2)c2ccn(CC(O)c3ccccc3)c(=O)c21 (configuration not stated) |  |  | 
10 | inactive | 8.1 µM | Not Active | Not Active |  |  |  | O=C1OC2(CCCCC2)c2ccn(CC(O)CO)c(=O)c21 (configuration not stated) |  |  | 
11 | inactive | 4.8 µM | Not Active | Not Active |  |  |  | CC(C)CC1(C)OC(=O)c2c1ccn(CC(O)c1ccccc1)c2=O (configuration not stated) |  |  | 
12 | inactive | 12.7 µM | Not Active | Not Active |  |  |  | CC(C)CC1(C)OC(=O)c2c1ccn(CCc1ccc(Cl)cc1)c2=O (racemic) |  |  | 
13 | inactive | 19.6 µM | Not Active | Not Active |  |  |  | CC1(CCc2ccccc2)OC(=O)c2c1ccn(CCCN1CCOCC1)c2=O (racemic) |  |  | 
14 | inactive |  | Not Active |  |  |  | Not Active | NC(=S)Nn1ccc2c(c1=O)C(=O)OC21CCCCC1 |  | 23.8% | 
15 | inactive |  | Not Active | Not Active | 31.8% |  |  | CC(C)CC1(C)OC(=O)c2c1ccn(CCCN1CCOCC1)c2=O (racemic) |  |  | 
16 | inactive |  | Not Active | Not Active |  |  | Not Active | Cc1cc(-n2ccc3c(c2=O)C(=O)OC32CCCCC2)n(-c2ccccc2)n1 |  |  | 
17 | inactive | 6.6 µM | Not Active | Not Active |  |  |  | NS(=O)(=O)c1ccc(-n2ccc3c(c2=O)C(=O)OC32CCCCC2)cc1 |  |  | 

Continued, molecule first:

Row | Compound | inhibition [1] | IC50 ([2]; read-out: IC50) | IC50 [3] | IC50 [4] | inhibition (Oryctolagus cuniculus [5]) | IC50 [6] | IC50 [2] | IC50 ([4]; read-out: IC50) | inhibition (Oryctolagus cuniculus [7]) | IC50 ([3]; read-out: IC50)
18 | CCC1(C)OC(=O)c2c1ccn(-c1ccc(S(N)(=O)=O)cc1)c2=O (racemic) | inactive | 4.9 µM | Not Active | Not Active |  |  |  |  |  | 
19 | CC1(C)OC(=O)c2c1ccn(-c1ccc(S(=O)(=O)Nc3ccccn3)cc1)c2=O | inactive |  | Not Active | Not Active | 64% |  |  |  |  | 
20 | CC1(C)OC(=O)c2c1ccn(-c1ccc(S(=O)(=O)NC(=N)N)cc1)c2=O | inactive | 5.9 µM | Not Active | Not Active |  |  |  |  |  | 
21 | Cn1ccc2c(c1=O)C(=O)OC2(C)c1ccccc1 (racemic) | inactive | 36 µM | Not Active | Not Active |  |  |  |  |  | 
22 | CC1(C)OC(=O)c2c1ccn(-c1ccc(S(=O)(=O)NC(=O)c3ccccc3)cc1)c2=O | inactive | 4.5 µM | Not Active | Not Active |  |  |  |  |  | 
23 | CC1(C)OC(=O)c2c1ccn(-c1ccc(S(=O)(=O)Nc3ccnn3-c3ccccc3)cc1)c2=O | inactive |  | Not Active | Not Active | 28% |  |  |  |  | 
24 | CC(C)CC1(C)OC(=O)c2c1ccn(-c1ccc(S(N)(=O)=O)cc1)c2=O (racemic) | inactive | 4.6 µM | Not Active | Not Active |  |  |  |  |  | 
25 | CC1(Cc2ccccc2)OC(=O)c2c1ccn(-c1ccc(S(N)(=O)=O)cc1)c2=O (racemic) | inactive | 3.6 µM | Not Active | Not Active |  |  |  |  |  | 
26 | CC(=O)NS(=O)(=O)c1ccc(-n2ccc3c(c2=O)C(=O)OC3(C)C)cc1 | inactive | 5.7 µM | Not Active | Not Active |  |  |  |  |  | 
27 | CC1(C)OC(=O)c2c1ccn(-c1ccc(S(=O)(=O)Nc3nccs3)cc1)c2=O | inactive |  | Not Active | Not Active | 22% |  |  |  |  | 
28 | CC1(CCc2ccccc2)OC(=O)c2c1ccn(-c1ccc(S(N)(=O)=O)cc1)c2=O (racemic) | inactive | 2.8 µM | Not Active | Not Active |  |  |  |  |  | 
29 | CC1(C)OC(=O)c2c1ccn(-c1ccc(S(N)(=O)=O)cc1)c2=O | inactive | 6.1 µM | Not Active | Not Active |  |  |  |  |  | 
30 | CCN(CC)CC(O)Cn1ccc2c(c1=O)C(=O)OC2(C)CCc1ccccc1 (mixture of isomers) | inactive | 2.5 µM | Not Active | Not Active |  |  |  |  |  | 
31 | Cc1noc(NS(=O)(=O)c2ccc(-n3ccc4c(c3=O)C(=O)OC4(C)C)cc2)c1C | inactive |  | Not Active | Not Active | 51% |  |  |  |  | 
32 | CC1(C)OC(=O)c2c1ccn(-c1ccc(S(=O)(=O)Nc3ncccn3)cc1)c2=O | inactive |  | Not Active | Not Active | 51% |  |  |  |  | 
33 | C[C@@]12OC(=O)[C@]1([C@@H](O)[C@@H]1C=CCCC1)NC(=O)[C@@H]2CCCl [MARIZOMIB] |  | 0.46 µM |  |  |  |  |  | 0.0026 µM |  | 0.021 µM

From ChEMBL document CHEMBL2375248, “C1 and N5 derivatives of cerpegin: synthesis of a new series based on structure-activity relationships to optimize their inhibitory effect on 20S proteasome” (Bioorg Med Chem Lett, 2013)
